Key:
BALB/c mice = assay: Protection of mice from IR-induced lethality; assay type: in vivo; conditions: 50 mg/kg iv 10 min prior to 6.5 or 8.5 Gy total body IR; 30-day observation
Description: BALB/c mice were exposed to 6.5 or 8.5 Gy total body IR 10 minutes after they received a single dose (50 mg/kg) of iv injection of D609 or vehicle (saline) through the tail vein. The death of these mice was recorded during a 30-day observation period after IR.
Moreover, when D609 (50 mg/kg, iv) was administered to mice 10 min prior to total body

[1] = test system: ceramide and DAG levels in U937 cells; assay: Ceramide and DAG levels in U937 cells by DAG kinase assay; assay type: cell-based, Human; conditions: 2 hrs
Description: To validate if inhibition of SMS may mediate D609-induced tumor cell death, the cellular level of SMS activity in U937 cells treated with vehicle or D609 were studied. […] NBD-C6-ceramide and PC were incubated with the cell lysates containing 50 μg proteins for 30 min at 30° C. The formation of NBD-C6-sphingomyelin was analyzed by TLC and quantified by determination of the fluorescent intensity of NBD-C6-sphingomyelin using a phosphoimager. The results, shown in FIGS. 10B-10D, are expressed as percent of the control cultures with vehicle and presented as means±SEM (n=3). […] The levels of ceramide (FIG. 10B) and DAG (FIG. 10C) were analyzed by the DAG kinase assay, normalized to the levels of cellular phospholipid and expressed as pmole/nmole phophate (pi) or the ratio of ceramide and DAG (FIG. 10D). The results represent means±SEM (n=3).

A20 lymphoma = conditions: 50 mg/kg i.v., alone or with 6.0 Gy irradiation
Description: A20 lymphoma was induced in normal BALB/c male mice by the tail vein injection of 5×10^5 cultured A20 cells. Two days later, the mice were assigned to groups of 10 mice each and received i.v. 1) saline, 2) 50 mg/kg D609, 3) saline plus 6.0 Gy irradiation or 4) D609 plus irradiation. Total body irradiation was given 10 min after D609 injection. Survival of each mouse was then followed by daily monitoring and weighing (5×/week).

S=C([S-])OC1CC2CC1C1CCCC21.[K+] (centres unmarked) [Prodrug D609, Tricyclodecan-9-yl-xanthogenate]
protection from IR-induced lethality (BALB/c mice): protected the mice from IR-induced lethality | level of DAG [1]: decrease in that of DAG | level of ceramide [1]: increase in the level of ceramide | ratio between ceramide and DAG [1]: dramatically elevated | therapeutic response (A20 lymphoma): no significant therapeutic response

From patent US20070244076A1, “Site and Rate Selective Prodrug Formulations of D609 with Antioxidant and Anticancer Activity” (priority 2003, published 2007)
